Data taken from ChEMBL document CHEMBL1152583 (Bioorg Med Chem, 2009).

What was measured:
[1] = molecular target: Acetylcholinesterase (Torpedo californica) (UniProt P04058); assay: Inhibition of Torpedo california AChE at 1.25 nM by Ellman's method; conditions: Tetronarce californica
[2] = molecular target: Acetylcholinesterase (Torpedo californica) (UniProt P04058); assay: Inhibition of Torpedo california AChE at 0.625 nM by Ellman's method; conditions: Tetronarce californica
[3] = molecular target: Acetylcholinesterase (Torpedo californica) (UniProt P04058); assay: Inhibition of Torpedo california AChE at 0.313 nM by Ellman's method; conditions: Tetronarce californica
[4] = molecular target: Acetylcholinesterase (Torpedo californica) (UniProt P04058); assay: Inhibition of Torpedo california AChE at 5 nM by Ellman's method; conditions: Tetronarce californica
[5] = molecular target: Acetylcholinesterase (Torpedo californica) (UniProt P04058); assay: Inhibition of Torpedo california AChE at 2.5 nM by Ellman's method; conditions: Tetronarce californica
[6] = molecular target: Acetylcholinesterase (Torpedo californica, UniProt P04058)
Acetylcholinesterase (Torpedo californica, UniProt P04058), sequence (P04058 whole entry): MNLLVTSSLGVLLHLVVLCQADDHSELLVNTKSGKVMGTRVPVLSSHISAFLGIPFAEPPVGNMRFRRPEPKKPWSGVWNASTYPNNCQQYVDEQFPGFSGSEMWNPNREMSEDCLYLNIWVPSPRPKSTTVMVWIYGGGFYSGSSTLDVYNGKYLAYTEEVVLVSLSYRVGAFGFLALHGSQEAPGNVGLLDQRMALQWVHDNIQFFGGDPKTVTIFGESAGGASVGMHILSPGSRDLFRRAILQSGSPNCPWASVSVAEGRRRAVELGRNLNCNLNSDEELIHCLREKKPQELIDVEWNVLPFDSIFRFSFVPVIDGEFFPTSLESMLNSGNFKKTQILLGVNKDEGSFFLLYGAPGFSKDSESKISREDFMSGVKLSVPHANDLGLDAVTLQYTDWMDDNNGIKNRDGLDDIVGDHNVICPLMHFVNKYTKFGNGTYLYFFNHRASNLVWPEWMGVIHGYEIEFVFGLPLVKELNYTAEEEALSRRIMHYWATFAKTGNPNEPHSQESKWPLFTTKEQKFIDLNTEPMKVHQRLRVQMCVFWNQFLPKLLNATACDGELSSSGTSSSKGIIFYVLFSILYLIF
Description: Inhibition of Torpedo california AChE by Ellman's method

[7] = molecular target: Acetylcholinesterase (Homo sapiens, UniProt P22303)
Acetylcholinesterase (Homo sapiens, UniProt P22303), sequence (P22303 whole entry): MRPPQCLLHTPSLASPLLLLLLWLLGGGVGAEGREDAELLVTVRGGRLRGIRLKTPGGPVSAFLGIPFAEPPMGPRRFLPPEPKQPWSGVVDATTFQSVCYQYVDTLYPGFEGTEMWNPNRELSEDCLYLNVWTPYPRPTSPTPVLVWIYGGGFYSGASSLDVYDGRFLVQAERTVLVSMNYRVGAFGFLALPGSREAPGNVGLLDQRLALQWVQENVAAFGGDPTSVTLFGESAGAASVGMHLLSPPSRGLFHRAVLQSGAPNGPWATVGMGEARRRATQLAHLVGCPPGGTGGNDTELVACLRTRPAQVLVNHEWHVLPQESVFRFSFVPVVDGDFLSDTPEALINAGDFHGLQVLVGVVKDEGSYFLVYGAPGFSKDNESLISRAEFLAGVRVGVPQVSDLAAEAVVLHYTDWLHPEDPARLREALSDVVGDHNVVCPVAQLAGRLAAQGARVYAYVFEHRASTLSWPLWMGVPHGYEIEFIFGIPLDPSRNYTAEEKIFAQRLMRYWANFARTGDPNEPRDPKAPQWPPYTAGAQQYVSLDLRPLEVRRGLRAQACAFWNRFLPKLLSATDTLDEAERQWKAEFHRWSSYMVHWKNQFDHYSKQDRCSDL
Description: Inhibition of human AChE by Ellman's method

[8] = molecular target: Acetylcholinesterase (Torpedo californica) (UniProt P04058); conditions: Tetronarce californica; 5 uM
Description: Inhibition of Torpedo california AChE at 5 uM by Ellman's method

[9] = molecular target: Acetylcholinesterase (Torpedo californica) (UniProt P04058); conditions: Tetronarce californica; 25 uM
Description: Inhibition of Torpedo california AChE at 25 uM by Ellman's method

[10] = molecular target: Acetylcholinesterase (Torpedo californica) (UniProt P04058); conditions: Tetronarce californica; 1.25 uM
Description: Inhibition of Torpedo california AChE at 1.25 uM by Ellman's method

[11] = molecular target: Acetylcholinesterase (Torpedo californica) (UniProt P04058); conditions: Tetronarce californica; 0.625 uM
Description: Inhibition of Torpedo california AChE at 0.625 uM by Ellman's method

[12] = molecular target: Acetylcholinesterase (Torpedo californica) (UniProt P04058); conditions: Tetronarce californica; 0.313 uM
Description: Inhibition of Torpedo california AChE at 0.313 uM by Ellman's method

[13] = molecular target: Acetylcholinesterase (Torpedo californica) (UniProt P04058); assay: Ratio of IC50 for drug to P0407 for Torpedo california AChE by Ellman's method; conditions: Tetronarce californica
[14] = molecular target: Acetylcholinesterase (Torpedo californica) (UniProt P04058); assay: Inhibition of Torpedo california AChE at 62.5 pM by Ellman's method; conditions: Tetronarce californica
[15] = molecular target: Acetylcholinesterase (Torpedo californica) (UniProt P04058); assay: Inhibition of Torpedo california AChE at 31.3 pM by Ellman's method; conditions: Tetronarce californica
[16] = molecular target: Acetylcholinesterase (Torpedo californica) (UniProt P04058); assay: Inhibition of Torpedo california AChE at 15.6 pM by Ellman's method; conditions: Tetronarce californica
[17] = molecular target: Acetylcholinesterase (Torpedo californica) (UniProt P04058); assay: Inhibition of Torpedo california AChE at 7.81 pM by Ellman's method; conditions: Tetronarce californica
[18] = molecular target: Acetylcholinesterase (Torpedo californica) (UniProt P04058); assay: Inhibition of Torpedo california AChE at 0.125 nM by Ellman's method; conditions: Tetronarce californica
[19] = molecular target: Acetylcholinesterase (Torpedo californica) (UniProt P04058); assay: Inhibition of Torpedo california AChE at 0.5 nM by Ellman's method; conditions: Tetronarce californica
[20] = molecular target: Acetylcholinesterase (Torpedo californica) (UniProt P04058); assay: Inhibition of Torpedo california AChE at 0.25 nM by Ellman's method; conditions: Tetronarce californica
[21] = molecular target: Acetylcholinesterase (Torpedo californica) (UniProt P04058); assay: Inhibition of Torpedo california AChE at 30.3 nM by Ellman's method; conditions: Tetronarce californica
[22] = molecular target: Acetylcholinesterase (Torpedo californica) (UniProt P04058); assay: Inhibition of Torpedo california AChE at 15.1 nM by Ellman's method; conditions: Tetronarce californica
[23] = molecular target: Acetylcholinesterase (Torpedo californica) (UniProt P04058); assay: Inhibition of Torpedo california AChE at 7.56 nM by Ellman's method; conditions: Tetronarce californica
[24] = molecular target: Acetylcholinesterase (Torpedo californica) (UniProt P04058); conditions: Tetronarce californica; 60.5 nM
Description: Inhibition of Torpedo california AChE at 60.5 nM by Ellman's method

Acetylcholinesterase (Torpedo californica), sequence (P04058 22-564 limits assumed): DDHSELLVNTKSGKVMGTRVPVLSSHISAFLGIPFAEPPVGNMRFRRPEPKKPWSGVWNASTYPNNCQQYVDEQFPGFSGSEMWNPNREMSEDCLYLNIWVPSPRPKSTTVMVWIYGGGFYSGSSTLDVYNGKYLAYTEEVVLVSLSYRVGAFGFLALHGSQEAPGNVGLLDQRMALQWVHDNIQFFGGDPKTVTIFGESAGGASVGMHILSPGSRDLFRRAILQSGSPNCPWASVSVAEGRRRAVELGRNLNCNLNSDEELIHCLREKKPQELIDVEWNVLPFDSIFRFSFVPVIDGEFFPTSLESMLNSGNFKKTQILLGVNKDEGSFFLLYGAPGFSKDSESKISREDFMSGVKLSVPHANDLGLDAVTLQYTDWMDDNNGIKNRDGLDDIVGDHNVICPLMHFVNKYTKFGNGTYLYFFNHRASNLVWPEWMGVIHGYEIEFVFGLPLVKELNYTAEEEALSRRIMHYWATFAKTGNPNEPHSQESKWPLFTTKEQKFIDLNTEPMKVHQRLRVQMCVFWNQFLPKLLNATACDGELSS

| Compound | IC50 [6] [nM] | IC50 [7] [nM] | Ratio [13] | inhibition [14] [%] | inhibition [15] [%] | inhibition [16] [%] | inhibition [17] [%] | inhibition [18] [%] | also measured |
| --- | --- | --- | --- | --- | --- | --- | --- | --- | --- |
| C/C=C1\[C@H]2C=C(C)C[C@]1(/N=C/C=C/c1ccccc1)c1ccc(=O)[nH]c1C2 | 1.81 | 24 | – | – | – | – | – | – | inhibition [1]: 37.1%; inhibition [2]: 16.7%; inhibition [3]: 5.5%; inhibition [4]: 83.4%; inhibition [5]: 62.5% |
| C/C=C1\[C@H]2C=C(C)C[C@]1(/N=C/C(=C/c1ccccc1)CCCCC)c1ccc(=O)[nH]c1C2 | 796 | 51 | – | – | – | – | – | – | inhibition [8]: 86%; inhibition [9]: 79%; inhibition [10]: 58.6%; inhibition [11]: 44.2%; inhibition [12]: 30.4% |
| C/C=C1\[C@H]2C=C(C)C[C@]1(/N=C/c1ccc(OC)cc1OC)c1ccc(=O)[nH]c1C2 | 0.0446 | 84 | 477 | 62.8 | 36.2 | 22.1 | 15.9 | 76.5 | – |
| C/C=C1\[C@H]2C=C(C)C[C@]1(/N=C/c1ccc(O)c(OCC)c1)c1ccc(=O)[nH]c1C2 | 0.842 | 25 | – | – | – | – | – | – | inhibition [1]: 56.2%; inhibition [2]: 43.6%; inhibition [3]: 28.2%; inhibition [19]: 84%; inhibition [20]: 68.1% |
| C/C=C1\[C@H]2C=C(C)C[C@]1(/N=C/c1ccc(N(C)C)cc1)c1ccc(=O)[nH]c1C2 | 23.3 | 31 | – | – | – | – | – | – | – |
| C=CCOc1ccc(/C=N/[C@@]23CC(C)=C[C@@H](Cc4[nH]c(=O)ccc42)/C3=C\C)cc1 | 13.9 | 31 | – | – | – | – | – | – | – |
| C/C=C1\[C@H]2C=C(C)C[C@]1(/N=C/c1ccc(C#N)cc1)c1ccc(=O)[nH]c1C2 | 0.0412 | 22 | 517 | 79.4 | 38.7 | 26 | 12.6 | 89.3 | – |
| CNC(=O)Oc1ccc2c(c1)[C@]1(C)CCN(C)[C@@H]1N2C | – | – | – | – | – | – | – | – | inhibition [21]: 64.3%; inhibition [22]: 45.5%; inhibition [23]: 24.7% |
| C/C=C1\[C@H]2C=C(C)C[C@]1(/N=C/c1cc(OC)cc(OC)c1)c1ccc(=O)[nH]c1C2 | 0.02 | 29 | 1060 | 80.6 | 61.7 | 41.3 | 28.5 | 90.8 | inhibition [24]: 73.7% |
| C/C=C1\[C@H]2C=C(C)C[C@]1(/N=C/c1ccccc1OS(=O)(=O)O)c1ccc(=O)[nH]c1C2 | 18.2 | 41 | – | – | – | – | – | – | – |
